From patent publication US10195242B2, “Therapeutic compounds” (Wintermute Biomedical, Inc., priority 2013, dated 2019) come the findings set out here.

Assay type in all cases: cell-based
Holding throughout (details): twenty-four hours after inoculation, combination assay

In assay [1] the test system is methicillin-resistant Staphylococcus aureus (MRSA). Description: In vitro growth inhibition on sheep blood agar (SBA) plates. Here is the method:
(§1) In vitro testing was conducted to measure the efficacy of WT13-12 at inhibiting the growth of clinically relevant bacteria. […] WT13-12 was streaked across half of a sheep blood agar (SBA) plate and allowed to dry for 15 minutes. The other side was streaked with the vehicle but not containing WT13-12. After drying, 50 μL of purified bacteria at 100,000 col/mL was streaked onto the control and treated sides of the sheep blood agar plates. After streaking, the plates were incubated at 37° C. for 48 hours. Growth was assessed at 24 and 48 hours post-inoculation. Percent inhibition was determined by measuring the treated side vs. the control side with the control side set at 100% growth.
(§2) Each component of WT13-12 was tested individually or in paired combination in the in vitro bacterial growth inhibition assay described above to determine the relative contribution of each component.

Assay [2] relates to Streptococcus agalactiae (Group B beta strep). Briefly: In vitro growth inhibition on SBA plates. Here is the method:
as §1, §2

Assay [3] deals with Streptococcus pyogenes (Group A beta hemolytic strep). Briefly: In vitro growth inhibition on SBA plates. Here is the method:
as §1, §2

For `N=C(N)NCCC[C@H](N)C(=O)O` [L-Arginine], the “growth inhibition of MRSA versus control” value in assay [1] is listed as “no effect”.
In the case of `C=CCCCCCCCCC(=O)O` [undecylenic acid], the “growth inhibition of S. agalactiae versus control” value in assay [2] is “significant effect”. In assay [3], the “growth inhibition of S. pyogenes versus control” value was “significant inhibitory effects”. Moreover, the “growth inhibition of MRSA versus control” value in assay [1] was “no effect”.
